Assay results reported in patent publication US20040224878A1, “Fertilization of aged oocytes” (priority 2000, published 2004).

Assays:
[1] = system: mouse cumulus-oocyte complex (COC); conditions: addition to the culture medium of mouse COC; cited from earlier work
aged oocytes = test: Cell cycle progression (GV, GVBD, PB) of young and aged oocytes after 22 h culture; assay type: cell-based, CBA/Ca mouse; conditions: 10 μM FF-MAS in Hx-medium, aged (35-38 week old) vs young (5-6 weeks old) oocytes, FIG. 1
Procedure: The CBA/Ca mouse provides a model system for studies on the maternal age effect of oocytes (7). This model is characterised by its relatively limited pool of follicles with low number of aged oocytes in the sexually mature adult female, similar to the human. All the following studies were carried out in the CBA/Ca mice. Animals were kept under controlled lighting and temperature.
Oocytes from young (5-6 weeks old) and aged (35-38 week old) CBA/Ca mice in the diestrus stage of the cycle were investigated. Oocytes were isolated in Hx-medium (see below) under a stereo microscope by manual rupture of the follicles using a pair of 27 gauge needles. […]
(a) By the end of the culture period cell cycle progression was analysed by counting the number of oocytes with germinal vesicle (GV) or germinal vesicle breakdown (GVB) and those with polar body (PB) by using a stereo microscope or an inverted microscope with differential interference contrast equipment. The percentage of oocytes with GV, GVBD and PB per total number of oocytes, respectively, was calculated in the 4 treatment groups of young and aged oocytes, respectively.

oocytes = conditions: mouse; cited from earlier work
[2] = system: aged metaphase 11 oocytes; test: Cytogenetic analysis (chromosome count, hyperploidy) of cultured oocytes; assay type: cell-based, CBA/Ca mouse; conditions: 10 μM FF-MAS given alone or in combination with Hx, 22 hours culture, FIG. 2
Procedure: The CBA/Ca mouse provides a model system for studies on the maternal age effect of oocytes (7). This model is characterised by its relatively limited pool of follicles with low number of aged oocytes in the sexually mature adult female, similar to the human. All the following studies were carried out in the CBA/Ca mice. Animals were kept under controlled lighting and temperature. Oocytes from young (5-6 weeks old) and aged (35-38 week old) CBA/Ca mice in the diestrus stage of the cycle were investigated. Oocytes were isolated in Hx-medium (see below) under a stereo microscope by manual rupture of the follicles using a pair of 27 gauge needles. Spherical, naked oocytes (NO) displaying an intact germinal vesicle (GV) were placed in a-minimum essential medium (x-MEM without ribonucleosides, Gibco BRL, Cat. No. 22561) supplemented with 3 mM hypoxanthine (Sigma Cat. No. H-9377), 8 mg/ml Human Serum Albumin (HSA, State Serum Institute, Denmark), 0.23 mM pyruvate (Sigma, Cat. No. S-8636), 2 mM glutamine (Flow Cat. No. 16-801), 100 IU/ml penicillin and 100 μg/ml streptomycin (Flow, Cat No. 16-700). This medium was designated Hx-medium. […] The number of chromosomes was counted in each oocyte. […]

human oocytes = conditions: concentrations around those observed in vivo, culture medium of human oocytes during IVF; cited from earlier work

## Cl.Cl.Clc1ccccc1CNCC1CCC(CNCc2ccccc2Cl)CC1 (centres unmarked) [AY9944]
[1]
  accumulation of FF-MAS: has the capacity to induce accumulation of FF-MAS

## CC(C)=CCC[C@@H](C)[C@H]1CC=C2C3=C(CC[C@@]21C)[C@@]1(C)CC[C@H](O)C(C)(C)[C@@H]1CC3 [FF-MAS, 4,4-dimethyl-5α-cholesta-8,14,24-triene-31-ol]
Aged oocytes
  maturation to metaphase 11 (cell cycle progression): more successful to mature to metaphase 11 than young oocytes
oocytes
  nuclear (meiotic) and cytoplasmic maturation: induces nuclear (meiotic) and cytoplasmic maturation
[2]
  numerical aberration rate, e.g. hyperploidy: reduces numerical aberration rate

## EGF: growth factor enhancing endogenous production of MAS in the cumulus enclosed oocyte (NSDSECPLSHDGYCLHDGVCMYIEALDKYACNCVVGYIGERCQYRDLKWWELR; UniProt P01133 971-1023, looked up)
Human oocytes
  implantation rates of the retrieved oocytes: significant improved implantation rates
